Test: Examination 7: body weight at 14 days old after GSSG feed until 3, 7 or 14 days old
Type: in vivo, broiler chicks
Details: n = 12
Protocol: In each group, 6 males and 6 females were tested. […] The chicks were raised until they became 14 days old, and then, their body weights were measured. The feed composition (ME3,100 kcal/kg, CP21) free of GSSG used in Examination 1 was used for the control group. In the control group the chicks were raised until they became 14 days old and their body weights were measured. In the test groups 1 to 3, a feed composition used as an initial-phase feed composition, for which the level of GSSG to be added was set to 0.05% by mass, is a composition prepared by adding GSSG at 0.05% by mass to a composition (ME3,100 kcal/kg, CP21) containing corn, soybean meal, corn gluten meal, fat and oil, calcium carbonate (powder), tricalcium phosphate, dietary salt, DL-methionine, L-lysine chloride, choline chloride, and vitamins/minerals in accordance with the NRC requirements. […] An ammonium salt was used as GSSG. The GSSG contained 95.6% by mass of oxidized glutathione, and the content of reduced glutathione mixed therein was 0.1% by mass or less.

With oxidized glutathione [GSSG] the 14-day-old weight (0.05% by mass GSSG feed until 3 days old) was 393 ± 17 g, the 14-day-old weight (0.05% by mass GSSG feed until 7 days old) was 391 ± 24 g and the 14-day-old weight (0.05% by mass GSSG feed until 14 days old) was 351 ± 47 g.

From patent US20180271930A1, “METHOD FOR RAISING POULTRY” (priority 2015, published 2018)
